Data set [1] has as its target T1, Leishmania major pteridine reductase 1 (LmPTR1) (Leishmania major, UniProt Q01782).
T1 construct: made in house
T1 sequence (Q01782 1-288): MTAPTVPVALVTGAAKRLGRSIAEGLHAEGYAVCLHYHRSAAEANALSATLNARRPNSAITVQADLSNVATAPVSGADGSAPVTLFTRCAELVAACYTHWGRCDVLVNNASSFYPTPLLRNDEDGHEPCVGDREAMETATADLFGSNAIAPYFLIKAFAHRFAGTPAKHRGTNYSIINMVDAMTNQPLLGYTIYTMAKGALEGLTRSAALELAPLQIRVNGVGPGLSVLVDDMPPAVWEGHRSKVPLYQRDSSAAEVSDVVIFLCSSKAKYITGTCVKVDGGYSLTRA
As to the kind of experiment: LmPTR1 enzyme reporter assay (cytochrome-c reduction, 550 nm). The class given is biochemical. The following applies: for IC50: compounds 1–3, SD agreed to ±10%; for inhibition at 50 µM: read-out: % Inhibition LmPTR1 (50 μM). As for the experimental part: (§1) TbPTR1 and LmPTR1 were purified as reported in literature. The enzyme kinetic profile of each selected protein was characterized by a spectrophotometric assay. The experimental assay consists of enzyme kinetic reaction monitoring at 340 nm for a total time of 180 s. The enzyme kinetic activity was measured at steady-state concentration of 7,8-dihydro-L-biopterin (H2B) and NADPH substrates equal to 50 and 120 µM and varying the enzyme concentration in the 0.001–0.006 µM and 0.005–0.010–0.015–0.020–0.025–0.030 µM range for Lm- and TbPTR1, respectively. The resulting kcat values were equal to 0.68 (s^−1) and 7.2 (s^−1) for Tb- and LmPTR1, respectively. For both TbPTR1 and LmPTR1, the Km value evaluation assay for H2B- and NADPH-substrates was performed in the 0.3-0.6–0.9–1.2–2.4–4.8 µM and 3.0–6.0–12.0–40.0–90.0–190.0 µM concentrations range, respectively.
(§2) Compounds 1A–3A were evaluated as reported in our previous paper. The novel synthesized compounds 1–3 were tested towards TbPTR1 and LmPTR1 using the in vitro TbPTR1/LmPTR1 enzyme reporter assay. The experimental procedure consists of monitoring the non-enzymatic reduction reaction of cytochrome-c at 550 nm, related to the reduction reaction of H2B to tetrahydrobiopterin (H4B) by using NADPH as the cofactor. TbPTR1 and LmPTR1 enzyme activity was assayed in a buffer containing 20 mM sodium citrate (pH 6.0) in a final experimental volume equal to 600 µL. The final reaction mixture contained different substrates added in the following order: TbPTR1/LmPTR1 (0.018 µM/0.002 µM) in 20 mM Tris-HCl, glycerol 10% (v/v), pH 7.5; H2B at a final concentration equal to 0.3 µM; cytochrome-c (80 µM); Milli-Q water to a final volume of 600 µL and NADPH to a final concentration of 500 µM. Before the addition of NADPH, the reaction mixture was incubated for 10 min at 30 °C and 80 RPM. To allow the starting of the reaction, NADPH was added and the enzyme reaction was detected for a total time of 10 min at 30 °C, 550 nm. The inhibition profile characterization of compounds 1–3 was performed with a DU-640 spectrophotometer (Beckman Coulter, Brea, CA, USA). Each compound was assayed in duplicate against Tb/LmPTR1 target enzymes in the 0–10–25–50–80–150 µM concentrations range. At the different concentration values, the compounds were added to the reaction mixture (enzyme, H2B, cytochrome-c in 20 mM sodium citrate buffer and Milli-Q water) and incubated for 10 min at 30 °C, 80 RPM. The reaction was initiated by the addition of NADPH (500 µM) and monitored for 10 min at 30 °C, 550 nm. The absorbance values were processed by software analysis and transformed into the corresponding slopes. The percentages of inhibition and the IC50 values were determined.
(In general: A reporter such as luciferase makes a cellular process visible.)

Data set [2] has as its target T2, Trypanosoma brucei pteridine reductase 1 (TbPTR1) (Trypanosoma brucei brucei, UniProt O76290).
T2 construct: made in house
T2 sequence (O76290 1-268): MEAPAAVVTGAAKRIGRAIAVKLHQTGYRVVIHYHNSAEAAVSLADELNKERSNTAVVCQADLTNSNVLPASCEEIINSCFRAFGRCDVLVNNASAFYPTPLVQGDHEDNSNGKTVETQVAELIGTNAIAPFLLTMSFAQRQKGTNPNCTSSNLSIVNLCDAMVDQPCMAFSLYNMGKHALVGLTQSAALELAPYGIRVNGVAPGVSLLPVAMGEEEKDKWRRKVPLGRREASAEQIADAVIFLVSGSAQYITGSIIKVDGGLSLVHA
Description: TbPTR1 enzyme reporter assay (cytochrome-c reduction, 550 nm). The class given is biochemical. The settings on record: for IC50: compounds 1–3, SD agreed to ±10%; for inhibition at 50 µM: read-out: % Inhibition TbPTR1 (50 μM), 50 μM. As for the experimental part: as §1, §2

The target in data set [3] is T3, CYP2D6 (Homo sapiens, UniProt P10635).
T3 construct: purchased Promega; host or cells: baculovirus-infected insect cells
Description: Cytochrome P450 2D6 assay (P450-Glo). The class given is in vitro ADME. The following applies: for inhibition at 10 µM: human. From the text:
These assays made use of the PromegaP450-Glo™ (Madison, AL, USA) assay platform. Each CYP450 assay includes microsomal preparations of cytochromes from baculovirus-infected insect cells.

T3 sequence (P10635 whole entry): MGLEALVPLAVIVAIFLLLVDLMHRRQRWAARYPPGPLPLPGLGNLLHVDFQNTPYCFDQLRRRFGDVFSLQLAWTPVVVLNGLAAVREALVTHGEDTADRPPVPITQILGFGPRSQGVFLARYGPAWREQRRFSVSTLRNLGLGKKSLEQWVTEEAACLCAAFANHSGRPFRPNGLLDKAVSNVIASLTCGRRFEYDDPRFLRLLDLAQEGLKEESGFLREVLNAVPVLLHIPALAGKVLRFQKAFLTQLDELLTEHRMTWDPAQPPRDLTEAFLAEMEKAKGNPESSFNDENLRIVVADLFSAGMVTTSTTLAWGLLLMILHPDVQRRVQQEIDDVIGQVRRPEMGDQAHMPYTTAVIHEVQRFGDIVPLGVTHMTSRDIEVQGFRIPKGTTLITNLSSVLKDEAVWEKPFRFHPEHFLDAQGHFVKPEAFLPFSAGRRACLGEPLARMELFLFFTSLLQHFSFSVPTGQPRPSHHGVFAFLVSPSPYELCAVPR

On to `O=C1CC(c2cccc(O)c2)Oc2ccc(O)cc21` (stereo not shown) [Compound 1], for which the IC50 (usually the concentration at which inhibition is half-maximal) in data set [1] was 57 µM; in data set [2] it was 31 µM; in data set [3], 85 µM. The inhibition (in general, the share of the control response that was lost under treatment) at 50 µM in data set [1] was determined as 50.4%; in data set [2] (compounds 1–3 and control) it was 81.3%. Also, the “% Inhibition TbPTR1 (50 μM)” value in data set [2] (50 μM, compounds 1–3 and control) was 81%. Moreover, the inhibition at 10 µM in data set [3] was under 15%.

Take `O=C1CC(c2ccc(O)cc2)Oc2ccc(O)cc21` (stereo not shown) [Compound 2]: the IC50 was determined as 35 µM in data set [1], 133 µM in data set [2] and 94 µM in data set [3]. Also, the inhibition at 50 µM in data set [1] worked out at 56%; in data set [2] (compounds 1–3 and control), 17.7%. The compound also gave an inhibition at 10 µM in data set [3] of under 15%.

`O=C1CC(c2ccc(O)c(O)c2)Oc2ccc(O)cc21` (stereo not shown) [Compound 3]: the IC50 in data set [1] was 36 µM; in data set [2], 82 µM; in data set [3], over 100 µM. The inhibition at 50 µM in data set [1] came to 69%; in data set [2] (compounds 1–3 and control), 34.6%. In data set [3], this compound gave an inhibition at 10 µM of under 15%.

The values above are taken from article PMC6155272, “Chroman-4-One Derivatives Targeting Pteridine Reductase 1 and Showing Anti-Parasitic Activity” (Molecules : A Journal of Synthetic Chemistry and Natural …, 2017).
